Measurements taken from PubChem BioAssay AID1996.
In brackets after ≈: the same amount, converted by molar mass.

Conditions: buffer; pH 7.4; 200.0 µM

| solubility kinetic [µg/mL] | Structure (SMILES) |
| --- | --- |
| > 42.8 | COc1ccccc1C(=O)NCC(=O)Nc1cccnc1 |
| 7.2 (≈ 22.2 µM) | COc1ccc(CNC(=O)c2cc3cccc(O)c3oc2=N)cc1 |
| 30.7 (≈ 108 µM) | Cc1csc(NC(=O)c2cc(C)nc3ccccc23)n1 |
| > 49.9 | Cc1ccc(CC(=O)NCCc2ccc(S(N)(=O)=O)cc2)cc1 |
| > 46 | CCOC(=O)C1CCN(C(=O)Nc2cccc(OC)c2)CC1 |
| > 58.9 | COc1ccc(S(=O)(=O)Nc2cc(Sc3ncn[nH]3)c(O)cc2C)cc1 |
| 31.2 (≈ 146 µM) | CN(C)c1cccc2cccc(N(C)C)c12 |
| > 46.6 | Cc1ccc(N(CC(=O)N2CCCC2)S(C)(=O)=O)c(C)c1 |
| 7.4 (≈ 26 µM) | CN(C)C(=O)c1cc2cc(Br)ccc2s1 |
| 28.5 (≈ 94.3 µM) | O=C(CN1CCc2ccccc2C1)Nc1ccc(F)cc1F |
| 72.2 (≈ 146 µM) | Cc1ccc(S(=O)(=O)N2CCOCC2)cc1NC(=O)COC(=O)COc1ccccc1[N+](=O)[O-] |
| > 48.4 | COc1ccc(-n2nc(C(=O)N(C)C)nc2-c2ccccc2)cc1 |
| > 46.3 | CC1C(=O)Nc2ccc(S(=O)(=O)N3CCCCCC3)cc21 (stereo not given) |
| > 42.1 | COc1ccccc1Cn1c(C(C)C)nc2ccccc21 |
| 11.5 (≈ 39.7 µM) | CCOc1ccc2oc(C(=O)NC(C)(C)CC)c(C)c2c1 |
| 33.6 (≈ 98.3 µM) | COc1cccc(NC(=O)c2nc(S(C)(=O)=O)ncc2Cl)c1 |
| > 46.8 | Nc1cc(=O)[nH]c(SCC(=O)Nc2cccnc2Cl)n1 |
| 0.8 (≈ 2.7 µM) | COc1ccccc1NC(=O)NC1CCCc2ccccc21 (stereo not given) |
| 41.8 (≈ 133 µM) | COc1cc2ncnc(NCc3ccccc3F)c2cc1OC |
| < 0.6 | CCCc1cc(C(=O)Nc2ccc(C(=O)OC)cc2)cs1 |
| > 42.8 | CC(Sc1ccccc1)C(=O)NCCc1ccccc1 (stereo not given) |
| 9.8 (≈ 36.9 µM) | CC(NC(=O)c1cccs1)c1ccc(Cl)cc1 (stereo not given) |
| < 0.4 | CC(=O)Nc1ccc(NC(=O)COc2ccc(-c3ccccc3)cc2)cc1 |
| 8.2 (≈ 27 µM) | Cc1ccc(SC(C)C(=O)NCc2ccc(F)cc2)cc1 (stereo not given) |
| 6.5 (≈ 19.7 µM) | Cc1c(N=Cc2cc3c(cc2[N+](=O)[O-])OCO3)cccc1[N+](=O)[O-] |

| solubility kinetic [µg/mL] | Structure (SMILES) |
| --- | --- |
| 3.1 (≈ 10.7 µM) | c1ccc(-c2nc(NC3CCCC3)c3ccccc3n2)cc1 |
| 30.6 (≈ 103 µM) | Cc1nc2ccc(NC(=O)c3ccc([N+](=O)[O-])cc3)cc2[nH]1 |
| 16.5 (≈ 47 µM) | O=S(=O)(NCc1ccccn1)c1ccc(Cl)c(C(F)(F)F)c1 |
| 23.2 (≈ 67 µM) | CC(C)C(=O)N1CCN(S(=O)(=O)c2ccc3ccccc3c2)CC1 |
| > 58.8 | CSCCC(NC(=O)c1ccccc1Cl)C(=O)NCCc1ccccn1 (stereo not given) |
| 51.7 (≈ 140 µM) | CCCS(=O)(=O)NCCc1csc(-c2ccc(OC)c(OC)c2)n1 |
| 21.5 (≈ 61.2 µM) | CC1=CCC2C(=O)N(c3ccc(OC(=O)c4ccco4)cc3)C(=O)C2C1 (stereo not given) |
| > 38 | O=C(O)c1cc2cc(Oc3ccccc3)ccc2[nH]1 |
| > 46 | CNC(=O)COC(=O)c1ccc(Cl)c(S(N)(=O)=O)c1 |
| 25.9 (≈ 82.4 µM) | COc1cccc(N2CCN(c3nc(C)c(C)c(=O)[nH]3)CC2)c1 |
| 2 (≈ 4.78 µM) | CCOc1ccc(NC(=O)c2ccc(NC(=O)c3ccc(NC(N)=O)cc3)cc2)cc1 |
| 18.3 (≈ 50.2 µM) | COc1ccc(CNC(=O)COC(=O)c2cc(C)nc3ccccc23)cc1 |
| 42.5 (≈ 140 µM) | Cc1ccc(C)c(NC(=O)COC(=O)Cc2ccsc2)c1 |
| 7.2 (≈ 29.5 µM) | O=C(Nc1ccc([N+](=O)[O-])cn1)c1cccnc1 |
| > 40.8 | O=C(NCc1ccccn1)Nc1cccc([N+](=O)[O-])c1 |
| 40.7 (≈ 139 µM) | COc1ccc(S(=O)(=O)NCCc2ccncc2)cc1 |
| > 46.5 | O=C1ON=C(c2cccc([N+](=O)[O-])c2)/C1=C/c1ccc(O)cc1 |
| 14.3 (≈ 41.5 µM) | CCOc1ccc(C(=O)N2CCN(c3cccc(Cl)c3)CC2)cc1 |
| < 0.4 | Cc1ccc(C)c(NC(=O)Cn2cc(C(=O)C3CC3)c3ccccc32)c1 |
| 0.5 (≈ 1.53 µM) | O=C(Nc1ccc(Br)cn1)c1cccc2ccccc12 |
| 3.7 (≈ 10.9 µM) | O=C(COC(=O)/C=C/c1cccs1)Nc1ccc(Cl)cc1F |
| 1.8 (≈ 6.35 µM) | Cc1cc(O)ccc1Nc1nc(-c2cccnc2)cs1 |
| 3.3 (≈ 10.4 µM) | CN(C)c1cc(-c2ccc(Cl)cc2Cl)oc(=O)c1Cl |
| 6.2 (≈ 14.3 µM) | O=C(COC(=O)c1ccc(S(=O)(=O)N2CCCC2)cc1)NCCc1ccc(F)cc1 |

Second part, the compound before the results:

| Structure (SMILES) | solubility kinetic [µg/mL] |
| --- | --- |
| CC1CCN(c2ccc(C(F)(F)F)cc2N)CC1 | < 0.3 |
| Cn1c(N)c(C(=O)COC(=O)c2ccc(Cl)nc2)c(=O)n(C)c1=O | 46.2 (≈ 131 µM) |
| CC1CC(C)CN(C(=O)COC(=O)c2ccc3c(c2)OCCO3)C1 (stereo not given) | 49.5 (≈ 148 µM) |
| O=C(c1ccc2c(c1)OCO2)N1CCc2ccccc21 | 34.9 (≈ 131 µM) |
| CCN(CC)C(=O)Cn1cc(SCC(=O)NC)c2ccccc21 | 46.5 (≈ 139 µM) |
| S=C(Nc1nc2c(s1)CCCC2)NC1CC1 | 5.7 (≈ 22.5 µM) |
| Cc1ccccc1C(=O)NC(CC(C)C)C(=O)NCC(C)(C)N1CCOCC1 (stereo not given) | > 58.4 |
| CCn1cc(CCCC(=O)NCc2cccnc2)c2ccccc21 | > 48.2 |
| CCOC(=O)N1CCN(C(=O)Cc2ccccc2OC)CC1 | > 46 |
| CN1CCCN(C(=O)COc2ccccc2Br)CC1 | > 49.1 |
| COc1ccccc1C(=O)COC(=O)CN1C(=O)C2CC=CCC2C1=O (stereo not given) | 52 (≈ 146 µM) |
| CCOC(=O)C1CCN(C(=O)c2cc3ccccc3oc2=O)CC1 | 48.4 (≈ 147 µM) |
| CCCN1CCN(C(=O)c2c(Cl)cnn2C)CC1 | > 40.6 |
| CC(OC(=O)C1=COCCO1)C(=O)NC1CCCCC1C (stereo not given) | > 44.6 |
| Cc1cc(F)ccc1NC(=O)C1CCCO1 (stereo not given) | 33.3 (≈ 149 µM) |
| O=C(Nc1ccc(C(=O)N2CCCC2)cc1)c1ccccc1[N+](=O)[O-] | 48.2 (≈ 142 µM) |
| NC1=NC(c2ccccc2)=NC1(NC(=O)c1ccccc1)C(Cl)Cl (stereo not given) | 44.4 (≈ 123 µM) |
| O=C(O)CC1c2ccccc2CCN1S(=O)(=O)c1cccs1 (stereo not given) | > 50.6 |

| Structure (SMILES) | solubility kinetic [µg/mL] |
| --- | --- |
| CC1CC(C)CN(C(=O)c2ccc3c(c2)OCCO3)C1 (stereo not given) | > 41.3 |
| Cc1cccc(NC(=O)C(C)N2CC=C(c3ccccc3)CC2)c1 (stereo not given) | 2.9 (≈ 9.05 µM) |
| CC1(C)CC(C(=O)Nc2ccccc2)C(=O)O1 (stereo not given) | > 35 |
| N#Cc1ccc(C(=O)OCC(=O)N2CCOCC2)cc1 | > 41.1 |
| Cn1c(N)c(C(=O)Nc2c(Cl)cccc2Cl)sc1=S | 2.4 (≈ 7.18 µM) |
| C=CCNC(=O)N1CCC(c2nc3ccccc3s2)CC1 | > 45.2 |
| NC(=O)c1ccsc1NC(=O)COC(=O)c1ccccn1 | > 45.8 |
| O=C(Nc1ccc2c(c1)OCCO2)c1ccccc1 | > 38.3 |
| O=C(O)C1C2C=CC(C2)C1C(=O)NCc1ccco1 (stereo not given) | 36.2 (≈ 139 µM) |
| O=C(/C=C/c1cccs1)NCc1ccc2c(c1)OCO2 | 6.3 (≈ 21.9 µM) |
| Cc1ccc(C(=O)NCC(=O)N2CCN(c3ccccc3)CC2)cc1 | 4.4 (≈ 13 µM) |
| NC(=O)C[C@H](NC(=O)c1ccc(Cl)cc1)C(=O)OCc1ccccc1 | > 54.1 |
| CCCC(=O)OCC(=O)NCc1ccc(Cl)cc1 | 35.8 (≈ 133 µM) |
| CCN(Cc1ccncc1)C(=S)Nc1ccc(Cl)cc1 | > 45.9 |
| CC(C)(C)C(=O)N1CCn2c1nc1ccccc12 | 31.9 (≈ 131 µM) |
| CC(C)(C)c1ccc(C(=O)NC2CCS(=O)(=O)C2)cc1 (stereo not given) | > 44.3 |
| COc1ccc(C(=O)N2CC3(C)C4CCC3(C)C2(C#N)C4)cc1OC (stereo not given) | 45 (≈ 132 µM) |
| CCC(=O)NCCNc1nc2cc(C)cc(C)c2cc1C#N | 3.7 (≈ 12.5 µM) |
